US8450461B2, “Risperidone immunoassay” (Saladax Biomedical Inc., priority 2010, dated 2013)

Key:
Assay type in all cases: binding, mouse
[1] = system: polyclonal antibodies to risperidone, bleed G1M1; assay: Indirect competitive microtiter plate immunoassay (ELISA), cross-reactivity, polyclonal anti-serum bleed G1M1; settings: polyclonal antibodies (Example 6a), relative to risperidone = 100%
Experimental: (§1) Ten female BALB/c mice were immunized i.p. with 100 μg/mouse of risperidone [9]-KLH immunogen, as prepared in Example 4, emulsified in Complete Freund's Adjuvant. The mice were boosted once, four weeks after the initial injection with 100 μg/mouse of the same immunogen emulsified in Incomplete Freund's Adjuvant. Twenty days after the boost, test bleeds containing polyclonal antibodies from each mouse were obtained by orbital bleed. The test bleeds were fractionated by centrifugation to yield anti-sera. The anti-sera from these test bleeds, which contain polyclonal antibodies to risperidone [9]-KLH immunogen, were evaluated in Examples 8a and 9.
(§2) The ELISA method for measuring risperidone concentrations was performed in polystyrene microtiter plates (Nunc MaxiSorp F8 Immunomodules) optimized for protein binding and containing 96 wells per plate. Each well was coated with risperidone [9]-BSA conjugate (prepared as in Example 5a) by adding 300 μL of risperidone [9]-BSA conjugate at 10 μg/mL in 0.05M sodium carbonate, pH 9.6, and incubating for three hours at room temperature. The wells were washed with 0.05M sodium carbonate, pH 9.6 and then were blocked with 375 μL of 5% sucrose, 0.2% sodium caseinate solution for 30 minutes at room temperature. After removal of the post-coat solution the plates were dried at 37° C. overnight.
as §2, with “[14]-BSA” for “[9]-BSA”, “5b)” for “5a)”
(§3) This procedure is to find the dilution of antibody or anti-serum to be tested for displacement as in Example 9. The ELISA method for screening risperidone antibodies (produced in Example 6) was performed with the microtiter plates that were sensitized with risperidone-BSA conjugate prepared in Examples 7a and 7b. The antibody screening assay was performed by diluting the murine serum from test bleeds (as in Example 6) containing polyclonal risperidone antibodies to 1:2,000, 1:[…] and 1:54,000 (volume/volume) in phosphate buffered saline containing 0.1% BSA and 0.01% thimerosal. […] (volume/volume) in phosphate buffered saline containing 0.1% BSA and 0.01% thimerosal. […]

[2] = system: polyclonal antibodies to risperidone, bleed G2M1; assay: Indirect competitive microtiter plate immunoassay (ELISA), cross-reactivity, polyclonal anti-serum bleed G2M1; settings: polyclonal antibodies (Example 6a), relative to risperidone = 100%
Experimental: as §1, §2
as §2, with “[14]-BSA” for “[9]-BSA”, “5b)” for “5a)”
as §3

[3] = system: monoclonal antibody to risperidone 4B9-21; assay: Indirect competitive microtiter plate immunoassay (ELISA), cross-reactivity, monoclonal antibody 4B9-21; settings: monoclonal antibody number 4B9-21 (Example 6b); relative to risperidone = 100%
Experimental: (§4) Mice from example 6a that were immunized with risperidone [9]-KLH prepared in 4 were used to produce monoclonal antibodies. For monoclonal antibodies starting three days before the fusion, the mice were injected i.p. with 400 μg (3 days before fusion), 200 μg (2 days before fusion), and 200 μg (1 day before fusion) of risperidone [9]-KLH in PBS/DMSO prepared in example 4. Spleen cells were isolated from the selected mice and fused with 2×10^7 SP2/0 cells with 50% polyethylene glycol 1500 according to the method of Coligan, J. E. et al., eds., Current Protocols in Immunology, 2.5.1-2.5.8, (1992), Wiley & Sons, NY. The fused cells were plated on ten 96-well plates in DMEM/F12 supplemented with 20% FetalClone I, 2% L-glutamine (100 mM) and 2% 50× HAT. Two to three weeks later, the hybridoma supernatant was assayed for the presence of anti-risperidone antibodies by ELISA (as in example 8b). Cells from the wells that gave positive ELISA results (example 8b) were expanded to 24 well plates. Clones positive by ELISA were subcloned twice by limiting dilution according to the method disclosed in Coligan, J. E. et al., eds., Current Protocols in Immunology, 2.5.8-2.5.17, 1992, Wiley & Sons, NY. Hybridoma culture supernatants containing monoclonal antibody from selected subclones were confirmed for risperidone binding by a competitive ELISA (example 9). […]

[4] = system: polyclonal antibodies to risperidone, bleed G2M5; assay: Indirect competitive microtiter plate immunoassay (ELISA), cross-reactivity, polyclonal anti-serum bleed G2M5; settings: polyclonal antibodies (Example 6a), relative to risperidone = 100%
Experimental: as §1, §2
as §2, with “[14]-BSA” for “[9]-BSA”, “5b)” for “5a)”
as §3

[5] = system: monoclonal antibody to risperidone 5D5-3; assay: Indirect competitive microtiter plate immunoassay (ELISA), cross-reactivity, monoclonal antibody 5D5-3; settings: monoclonal antibody number 5D5-3 (Example 6b); relative to risperidone = 100%
Experimental: as §4

[6] = system: polyclonal antibodies to risperidone, bleed G1M3; assay: Indirect competitive microtiter plate immunoassay (ELISA), cross-reactivity, polyclonal anti-serum bleed G1M3; settings: polyclonal antibodies (Example 6a), relative to risperidone = 100%
Experimental: as §1, §2
as §2, with “[14]-BSA” for “[9]-BSA”, “5b)” for “5a)”
as §3

[7] = system: antibodies to risperidone (pool of antibodies); assay: Competitive immunoassay / screening with the pool of antibodies to risperidone
Experimental: The present invention relates to novel antibodies and monoclonal antibodies to risperidone and paliperidone. The antisera of the invention can be conveniently produced by immunizing host animals with the immunogens of this invention. Suitable host animals include rodents, such as, for example, mice, rats, rabbits, guinea pigs and the like, or higher mammals such as goats, sheep, horses and the like. […]
The ELISA method for determining IC50 values and cross-reactivity was performed with the microtiter plates that were sensitized with risperidone-BSA conjugates as described in Examples 7a and 7b. […] The assays were all performed by diluting the concentration of the anti-sera or monoclonal antibodies in each of the wells to the titer determined in Example 8a. […] Following the incubation for color development, 50 μL of stop solution (1.5% sodium fluoride in di H2O) was added to each well to stop the color development and after 20 seconds of shaking the absorbance was determined at 650 nm (Molecular Devices Plate Reader). The amount of antibody in a well was proportional to the absorbance measured and inversely proportional to the amount of risperidone in the sample. The IC50's of risperidone and paliperidone were determined by constructing dose-response curves with the absorbance in the wells plotted versus analyte concentration in the wells. […]

Row | binding of the antibodies to the compound (screening) ([7]; antibodies from immunized mice screened against the compound) | SMILES | Cross-reactivity of competitive immunoassay [1] [%] | Cross-reactivity of competitive immunoassay [2] [%] | Cross-reactivity of competitive immunoassay [3] [%] | Cross-reactivity of competitive immunoassay [4] [%] | Cross-reactivity of competitive immunoassay [5] [%] | Cross-reactivity of competitive immunoassay [6] [%] | percent cross-reactivities relative to risperidone ([7]; measured with this pool of antibodies, ratio of IC50 risperidone to IC50 paliperidone) [%]
1 | – | Cc1nc2n(c(=O)c1CCN1CCC(c3noc4cc(F)ccc34)CC1)CC(O)CC2 (stereo not shown) [7-hydroxy-risperidone] | 50 | 65 | 30 | 69 | 39 | 66 | –
2 | – | Fc1ccc2c(C3CCNCC3)noc2c1 [N-dealkyl-risperidone] | 0.02 | 0.09 | – | 0.1 | – | 0.07 | –
3 | substantial binding | Cc1nc2n(c(=O)c1CCN1CCC(c3noc4cc(F)ccc34)CC1)CCCC2O (stereo not shown) [Paliperidone, paliperidone] | 81 | 98 | – | 81 | – | 80 | 100±20
4 | – | Cc1nc2n(c(=O)c1CCN1CCC(c3noc4cc(F)ccc34)CC1)CCCC2 [Risperidone, risperidone] | 100 | 100 | 100 | 100 | 100 | 100 | –
